# Tested on: tinnitus
# Test: clinical use of intranasal oxytocin formulations to treat tinnitus
# Format: in vivo, human
# Source text: In an aspect, this disclosure provides a method for treating tinnitus. The method comprises administering intranasally to an individual a composition comprising or consisting essentially of oxytocin, wherein such administration results in treatment of tinnitus. The effectiveness of treatment of tinnitus may be monitored by quantifying tinnitus, such as by self-evaluation using clinically accepted techniques. An example is the Tinnitus Handicap Inventory (“THI”), a validated and published measurement technique. (Newman et al., Arch Otolaryngol Head Neck Surg, 1996, February 122(2), 143-8). In an embodiment, the improvement in an individual using THI may comprise an improvement of at least 10%. In various embodiments, the improvement may comprise from 10-100%, such as at least 20, 30, 40, 50, 60, 70, 80, 90, 95, or 99%. This example describes clinical use of the present formulations to treat tinnitus. […] The formulation contained oxytocin, magnesium chloride, citric acid, and sodium citrate in sterile water. […] The dose was then increased to 45 IU (3 sprays of 15 IU) 4 times daily. […] A thickener was then added to the formulation keeping the oxytocin amount the same. […] Their score on the Tinnitus Handicap Inventory reduced from a pretreatment score of 96 (meaning a catastrophic level) to a current score of 14 (meaning mild or no tinnitus). The patient has remained improved over 1 year since initiating therapy. Their current dose is 22.5 IU in each nostril 4 times daily. Since their tinnitus occurs in distinct cycles, at times when tinnitus severity is loudest, they increase the dose to 5 times daily for 2 days. […] Their current handicap inventory is 8. […] The dose was increased to 45 IU 4 times daily resulting in a decrease in tinnitus volume by approximately 30%. In another patient, who developed constant tinnitus after a neck injury one year ago, a dose of 45 IU (22.5 IU in each nostril) 4 times daily was used for 30 days and is still ongoing. It has provided about 15% improvement. […] In another patient with constant tinnitus a dose of 30 IU 4 times daily has been started and treatment is ongoing.
# [1] = patient with constant tinnitus, 30 IU 4 times daily, after 2 weeks
# [2] = second patient, 45 IU twice daily
smiles,measurement,setting,value
CC[C@H](C)[C@@H]1NC(=O)[C@H](Cc2ccc(O)cc2)NC(=O)[C@@H](N)CSSC[C@@H](C(=O)N2CCC[C@H]2C(=O)N[C@@H](CC(C)C)C(=O)NCC(N)=O)NC(=O)[C@H](CC(N)=O)NC(=O)[C@H](CCC(N)=O)NC1=O [oxytocin],time remained improved since initiating therapy,first patient,over 1 year
same,current handicap inventory,"first patient, 22.5 IU in each nostril 4 times daily, 5 times daily for 2 days when loudest",8
same,time without tinnitus,"first patient, 22.5 IU in each nostril 4 times daily, 5 times daily for 2 days when loudest, past 3 months",≤ 10 days
same,relief of tinnitus,"first patient, 45 IU (3 sprays of 15 IU) 4 times daily, no thickener",significant relief
same,patient-reported benefit,"first patient, 60 IU daily (30 IU twice daily), oxytocin, magnesium chloride, citric acid, sodium citrate in sterile water",partial benefit
same,score on the Tinnitus Handicap Inventory,"first patient, formulation with thickener, pretreatment score 96 (catastrophic level)",14
same,relief of tinnitus,"first patient, initial dose of less than 20 IU daily, intranasal",did not provide any relief
same,tinnitus free period,"first patient, thickener added to the formulation, oxytocin amount the same (45 IU 4 times daily)",several days of tinnitus free period
same,relief of tinnitus,lower amounts of oxytocin (such as under 20 IU per day),did not result in any significant relief
same,improvement,"patient with constant tinnitus after neck injury, 45 IU (22.5 IU in each nostril) 4 times daily for 30 days",about 15%
same,tinnitus volume,"patient with constant tinnitus after neck injury, dose raised to 5 times daily on occasions",diminished tinnitus volume
same,time without noticing the tinnitus,[1],several hours per day without noticing the tinnitus
same,tinnitus intensity,[1],tinnitus intensity has lowered
same,benefit,"patient with drug-caused tinnitus, 30 IU twice daily",without benefit
same,decrease in tinnitus volume,"patient with drug-caused tinnitus, 45 IU 4 times daily",approximately 30%
same,benefit,[2],significant benefit
same,reduction of tinnitus volume,[2],45-60%
same,time remaining improved on dosing schedule,[2],more than a year
same,tinnitus free days,[2],some days in which they are tinnitus free

# From US11241477B2, “Oxytocin compositions for treatment of tinnitus” (New York University, priority 2019, dated 2022)
